{"source": "ChEMBL document CHEMBL4680318", "about": "“(S)-Erypoegin K, an isoflavone isolated from Erythrina poeppigiana, is a novel inhibitor of topoisomerase IIα: Induction of G2 phase arrest in human gastric cancer cells” (Bioorg Med Chem, 2021)", "key": {"[1]": {"system": "MCF7", "test": "Growth inhibition of human MCF7 cells measured after 48 hrs by sulforhodamine B assay", "assay_type": "functional"}, "[2]": {"system": "MDA-MB-231", "test": "Growth inhibition of human MDA-MB-231 cells measured after 48 hrs by sulforhodamine B assay", "assay_type": "functional"}, "[3]": {"system": "SF-295", "test": "Growth inhibition of human SF-295 cells measured after 48 hrs by sulforhodamine B assay", "assay_type": "functional"}, "[4]": {"system": "SNB-78", "test": "Growth inhibition of human SNB-78 cells measured after 48 hrs by sulforhodamine B assay", "assay_type": "functional"}, "[5]": {"system": "KM12", "test": "Growth inhibition of human KM12 cells measured after 48 hrs by sulforhodamine B assay", "assay_type": "functional"}, "[6]": {"system": "HCT-15", "test": "Growth inhibition of human HCT-15 cells measured after 48 hrs by sulforhodamine B assay", "assay_type": "functional"}, "[7]": {"system": "NCI-H522", "test": "Growth inhibition of human NCI-H522 cells measured after 48 hrs by sulforhodamine B assay", "assay_type": "functional"}, "[8]": {"system": "SK-OV-3", "test": "Growth inhibition of human SK-OV-3 cells measured after 48 hrs by sulforhodamine B assay", "assay_type": "functional"}, "[9]": {"system": "RXF 631", "test": "Growth inhibition of human RXF 631 cells measured after 48 hrs by sulforhodamine B assay", "assay_type": "functional"}, "[10]": {"system": "ACHN", "test": "Growth inhibition of human ACHN cells measured after 48 hrs by sulforhodamine B assay", "assay_type": "functional"}, "[11]": {"system": "MKN-1", "test": "Growth inhibition of human MKN-1 cells measured after 48 hrs by sulforhodamine B assay", "assay_type": "functional"}, "[12]": {"system": "MKN-7", "test": "Growth inhibition of human MKN-7 cells measured after 48 hrs by sulforhodamine B assay", "assay_type": "functional"}, "[13]": {"system": "MKN-28", "test": "Growth inhibition of human MKN-28 cells measured after 48 hrs by sulforhodamine B assay", "assay_type": "functional"}, "[14]": {"target": "DNA topoisomerase 2-alpha (Homo sapiens) (UniProt P11388)", "sequence (P11388 whole entry)": "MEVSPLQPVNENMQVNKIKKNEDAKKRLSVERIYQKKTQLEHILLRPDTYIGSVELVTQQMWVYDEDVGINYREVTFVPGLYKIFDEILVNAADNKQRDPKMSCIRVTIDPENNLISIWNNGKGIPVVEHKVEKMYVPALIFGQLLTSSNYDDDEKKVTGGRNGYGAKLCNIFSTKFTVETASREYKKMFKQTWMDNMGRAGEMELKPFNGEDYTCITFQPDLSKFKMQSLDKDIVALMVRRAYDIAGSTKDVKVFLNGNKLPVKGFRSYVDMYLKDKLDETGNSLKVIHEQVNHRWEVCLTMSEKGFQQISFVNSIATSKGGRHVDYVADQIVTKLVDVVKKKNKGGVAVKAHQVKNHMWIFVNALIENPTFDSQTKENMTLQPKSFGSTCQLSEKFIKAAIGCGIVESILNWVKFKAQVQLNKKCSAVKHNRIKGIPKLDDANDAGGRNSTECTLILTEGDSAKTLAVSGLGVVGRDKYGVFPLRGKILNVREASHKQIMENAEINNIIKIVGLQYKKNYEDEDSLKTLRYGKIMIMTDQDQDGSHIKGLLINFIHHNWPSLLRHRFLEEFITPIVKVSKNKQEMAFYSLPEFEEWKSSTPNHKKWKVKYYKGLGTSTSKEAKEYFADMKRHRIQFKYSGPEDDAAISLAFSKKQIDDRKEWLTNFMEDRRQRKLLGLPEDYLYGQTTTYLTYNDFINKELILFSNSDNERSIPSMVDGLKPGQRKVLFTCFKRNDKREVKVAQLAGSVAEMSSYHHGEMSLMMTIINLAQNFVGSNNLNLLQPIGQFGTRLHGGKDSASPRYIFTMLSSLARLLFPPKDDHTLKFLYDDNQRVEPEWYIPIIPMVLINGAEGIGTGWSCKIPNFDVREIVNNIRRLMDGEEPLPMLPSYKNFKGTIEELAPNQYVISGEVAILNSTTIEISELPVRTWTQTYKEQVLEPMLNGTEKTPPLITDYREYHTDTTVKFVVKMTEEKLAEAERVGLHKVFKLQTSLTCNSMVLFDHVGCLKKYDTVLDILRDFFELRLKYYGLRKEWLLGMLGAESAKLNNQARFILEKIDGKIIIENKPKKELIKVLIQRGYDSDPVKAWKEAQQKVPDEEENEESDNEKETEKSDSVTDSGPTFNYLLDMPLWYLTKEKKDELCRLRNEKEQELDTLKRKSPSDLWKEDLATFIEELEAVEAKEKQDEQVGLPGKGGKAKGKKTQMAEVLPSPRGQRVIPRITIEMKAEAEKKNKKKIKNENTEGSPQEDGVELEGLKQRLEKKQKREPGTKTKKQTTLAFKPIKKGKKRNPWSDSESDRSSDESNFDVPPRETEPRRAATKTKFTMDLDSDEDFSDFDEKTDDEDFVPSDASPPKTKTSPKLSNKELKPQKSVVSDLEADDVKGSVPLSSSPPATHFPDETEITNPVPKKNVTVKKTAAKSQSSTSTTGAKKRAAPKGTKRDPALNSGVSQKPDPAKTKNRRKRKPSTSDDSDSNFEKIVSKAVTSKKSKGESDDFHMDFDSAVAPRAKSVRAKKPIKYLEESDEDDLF", "test": "Inhibition of human DNA topoisomerase 2alpha assessed as stabilization of DNA cleavage complex at 50 to 200 uM using supercoiled pSL1180 plasmid DNA as substrate measured after 30 mins by ethidium bromide staining-based UV imaging analysis", "details": "dose 50-200 µM"}, "[15]": {"system": "GCIY", "test": "Cytotoxicity against human GCIY cells assessed as reduction in cell viability measured after 48 hrs by MTS/CellTiter96 aqueous one solution cell proliferation assay", "assay_type": "functional, cell-based"}, "[16]": {"system": "MKN-1", "test": "Induction of apoptosis in human MKN-1 cells assessed as activation of caspase 3 at 1 to 10 uM by fluorescence assay", "assay_type": "functional, cell-based", "details": "dose 1-10 µM, time 5-35 hrs, TDE = time-dependent effect"}, "[17]": {"system": "MKN-1", "test": "Induction of apoptosis in human MKN-1 cells assessed as activation of caspase 9 at 1 to 10 uM by fluorescence assay", "assay_type": "functional, cell-based", "details": "dose 1-10 µM, time 5-35 hrs, TDE = time-dependent effect"}, "[18]": {"system": "GCIY", "test": "Cell cycle arrest in human GCIY cells assessed as accumulation at S phase at 0.1 uM measured after 24 hrs by propidium iodide staining based Muse cell analyzer (reference value: 25.7 +/- 0.7 %)", "assay_type": "functional"}, "[19]": {"system": "MKN-1", "test": "Cell cycle arrest in human MKN-1 cells assessed as accumulation at G0/G1 phase at 0.1 uM measured after 24 hrs by propidium iodide staining based Muse cell analyzer (reference value: 49.6 +/- 2.6 %)", "assay_type": "functional"}, "[20]": {"system": "MKN-1", "test": "Cell cycle arrest in human MKN-1 cells assessed as accumulation at G2/M phase at 0.1 uM measured after 24 hrs by propidium iodide staining based Muse cell analyzer (reference value: 33.2 +/- 0.5 %)", "assay_type": "functional"}, "[21]": {"test": "Toxicity in KSN/Slc nude mouse xenografted with human GCIY cells assessed as effect on body weight at 40 mg/kg, ip administered twice a week for 4 weeks starting from day 4 post inoculation", "assay_type": "organism-based", "details": "in vivo, 672 h"}}, "note": "Activity calls are given as the source filed them. No cut-off for these calls is given here.", "data": [{"smiles": "CC(C)(O)[C@@H]1Cc2c(cc(O)c3c(=O)c(-c4ccc(O)cc4)coc23)O1", "values": [{"measurement": "GI50", "setting": "[1]", "result": 138, "unit": "nM"}, {"measurement": "GI50", "setting": "[2]", "result": 1740, "unit": "nM"}, {"measurement": "GI50", "setting": "[3]", "result": 275, "unit": "nM"}, {"measurement": "GI50", "setting": "[4]", "result": 5890, "unit": "nM"}, {"measurement": "GI50", "setting": "[5]", "result": 813, "unit": "nM"}, {"measurement": "GI50", "setting": "[6]", "result": 676, "unit": "nM"}, {"measurement": "GI50", "setting": "[7]", "result": 1580, "unit": "nM"}, {"measurement": "GI50", "setting": "[8]", "result": 427, "unit": "nM"}, {"measurement": "GI50", "setting": "[9]", "result": 5010, "unit": "nM"}, {"measurement": "GI50", "setting": "[10]", "result": 182, "unit": "nM"}, {"measurement": "GI50", "setting": "[11]", "result": 295, "unit": "nM"}, {"measurement": "GI50", "setting": "[12]", "result": 4370, "unit": "nM"}, {"measurement": "GI50", "setting": "[13]", "result": 7080, "unit": "nM"}, {"measurement": "inhibition", "setting": "[14]", "result": "Active"}, {"measurement": "IC50", "setting": "[15]", "result": 270, "unit": "nM"}, {"measurement": "Activity", "setting": "[16]", "result": "Tde"}, {"measurement": "Activity", "setting": "[17]", "result": "Tde"}, {"measurement": "Activity", "setting": "[18]", "result": 22.4, "unit": "%"}, {"measurement": "Activity", "setting": "[19]", "result": 24.9, "unit": "%"}, {"measurement": "Activity", "setting": "[20]", "result": 60.8, "unit": "%"}, {"measurement": "Activity", "setting": "[21]", "result": "Non-Toxic"}]}]}
